How the values were obtained:
SC5314 Candida albicans = experiment: In vitro combination therapy checkerboard dilution assay (Amphotericin B & hDectin1-Fc) with human primary macrophages; format: cell-based; settings: 24 hours, 37° C.
Procedure: Human peripheral blood CD14+ monocytes were cultured at 1×10^6 cells/mL in 5 mL of ImmunoCult™-SF Macrophage Differentiation Medium with Human Recombinant M-CSF at 50 ng/ml in a T-25 flask at 37° C. in a 5% CO2 incubator. On Day 4, 2.5 mL of fresh ImmunoCult™-SF Macrophage Differentiation Medium was added to the flask. On Day 6, M1 activation was initiated with the addition of 50 ng/mL IFN-γ. On Day 8, the macrophages were treated with ACCUTASE and scrapped from the flask. The cells were centrifuged and resuspended in RPMI medium with 10% FBS and seeded into 96 well plates at 10^5 cells/well. The co-culture assay involves the addition of 10^5 cells/well of SC5314 Candida albicans cells to wells containing 10^5 cells/well of human primary macrophages cells with final concentration of hDectin1-Fc at 0, 1, 10 or 100 g/ml and varying concentration of Amphotericin B in a checkerboard dilution assay format in a 96 well plate. The assay was incubated for 24 hr at 37° C. in a 5% CO2 atmosphere incubator and the MIC and MFC determined visual using a Nikon Eclipse Ti-E inverted microscope.
10′ Candida albicans cells and 10′ human primary macropahges were seeded per well in a checkerboard dilution assay of Amphotericin B with the respective concentration of hDectin1-Fc (0, 10, 100 μg/ml) and incubated for 24 hours at 37° C.

Candida albicans = experiment: Minimum inhibitory concentration assay (CLSI reference method); format: cell-based; settings: 37° C.
Excerpt: Linker conjugation site and its length can affect the activity of drug in the way it is able to interact with its target as a result of a change in preferred conformation. Amphotericin B has two possible sites of conjugation: the carboxylic acid on the macrocyclic ring (C-linked) and the amine on the sugar (N-linked). To investigate how conjugation to each of these sites affects the activity of Amphotericin B, polyethylene glycol (PEG) linkers of three different repeat units were attached to them (FIG. 20) and their MIC of Candida albicans evaluated against the unconjugated free Amphotericin B.
The MIC assay of the N-linked and C-linked PEG conjugated Amphotericin B was conducted for 3 different PEG lengths of 4, 12 and 24 repeat units versus unconjugated Amphotericin B (Table 3). The PEG conjugated Amphotericin B and free Amphotericin B were diluted and incubated at 37° C. for 24 hrs with […] Candida albicans cells/well according to the CLSI reference method for antifungal susceptibility testing of yeasts.

C[C@@H]1[C@H](O)[C@@H](C)/C=C/C=C/C=C/C=C/C=C/C=C/C=C/[C@H](O[C@@H]2O[C@H](C)[C@@H](O)[C@H](N)[C@@H]2O)C[C@@H]2O[C@](O)(C[C@@H](O)C[C@@H](O)[C@H](O)CC[C@@H](O)C[C@@H](O)CC(=O)O[C@H]1C)C[C@H](O)[C@H]2C(=O)O [Amphotericin B]
basal MFC of Amphotericin B (SC5314 Candida albicans; absence of hDectin1-Fc): 110 nM | MFC of Amphotericin B (SC5314 Candida albicans; hDectin1-Fc concentration of 100 µg/ml): 60 nM | 24hr MIC (Candida albicans): 0.75 μm
